Results taken from US20230192677A1, “CYP11A1 INHIBITORS” (ORION CORPORATION, priority 2020, published 2023).

How the values were obtained:
CYP11A1 = target: T1, CYP11A1 (Homo sapiens, UniProt P05108); experiment: CYP11A1 inhibition, isocaproic acid release assay (IARA) in H295R cells; type: cell-based; settings: human H295R adrenocortical carcinoma cell line, three days, 3 nM [24,25-3H]-labelled cholesterol; read-out: IC50 on CYP11A1 inhibition (Group)
T1 construct: human H295R adrenocortical carcinoma cell line was used as source of enzyme; endogenous in cells; host or cells: H295R human adrenocortical carcinoma cells
T1 sequence (P05108 40-521): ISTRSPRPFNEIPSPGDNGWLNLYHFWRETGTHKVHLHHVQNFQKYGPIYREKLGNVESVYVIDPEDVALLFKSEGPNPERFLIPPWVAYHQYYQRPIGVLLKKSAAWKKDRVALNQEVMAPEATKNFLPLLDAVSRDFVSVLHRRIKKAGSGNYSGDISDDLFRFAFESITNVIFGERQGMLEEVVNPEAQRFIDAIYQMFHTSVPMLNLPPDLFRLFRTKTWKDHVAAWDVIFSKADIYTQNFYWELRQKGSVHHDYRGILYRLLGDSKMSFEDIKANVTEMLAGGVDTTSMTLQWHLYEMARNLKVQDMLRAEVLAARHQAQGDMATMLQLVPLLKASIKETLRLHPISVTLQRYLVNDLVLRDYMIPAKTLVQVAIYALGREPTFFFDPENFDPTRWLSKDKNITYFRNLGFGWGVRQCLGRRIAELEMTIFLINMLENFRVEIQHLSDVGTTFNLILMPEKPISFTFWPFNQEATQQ
Experimental: The ability of the test compounds to inhibit conversion of cholesterol to pregnenolone and isocaproic acid was measured by modification of isocaproic acid release assay (IARA) described by Ruangwises et al. (Biology of Reproduction 1991; 45(1):143-50) except that human H295R adrenocortical carcinoma cell line was used as source of enzyme and extraction was done with dextran-coated charcoal suspension (Isomaa, V. et al., Endocrinology 1982; 111(3):833-843). […] To determine the half maximal inhibitory concentration (IC50) of the test compounds on CYP11A1 inhibition, the cells were treated for three days with increasing concentrations of the test compounds in the presence of 3 nM [24,25-3H]-labelled cholesterol (American Radiolabelled Chemicals). The final DMSO concentration was 1%. Cell culture medium was extracted with dextran-coated charcoal suspension and the radiolabelled isocaproic acid was determined by mixing 100 μl of supernatant fraction in 200 μl of scintillation fluid (OptiPhase SuperMix, Perkin Elmer). Radioactivity was measured using a Microbeta scintillation counter (1450 MicroBeta Trilux, Wallac). All the test compounds were studied at 10 concentrations in duplicates.

[1] = target: recombinant human cytochrome P450 (CYP) CYP3A4 enzyme (Homo sapiens, UniProt P08684); experiment: Formation of reactive metabolites, trapping with GSH, KCN and SCA; settings: recombinant human CYP3A4, NADPH, 1 hour, pH 7.4
Chain of recombinant human cytochrome P450 (CYP) CYP3A4 enzyme (P08684 whole entry): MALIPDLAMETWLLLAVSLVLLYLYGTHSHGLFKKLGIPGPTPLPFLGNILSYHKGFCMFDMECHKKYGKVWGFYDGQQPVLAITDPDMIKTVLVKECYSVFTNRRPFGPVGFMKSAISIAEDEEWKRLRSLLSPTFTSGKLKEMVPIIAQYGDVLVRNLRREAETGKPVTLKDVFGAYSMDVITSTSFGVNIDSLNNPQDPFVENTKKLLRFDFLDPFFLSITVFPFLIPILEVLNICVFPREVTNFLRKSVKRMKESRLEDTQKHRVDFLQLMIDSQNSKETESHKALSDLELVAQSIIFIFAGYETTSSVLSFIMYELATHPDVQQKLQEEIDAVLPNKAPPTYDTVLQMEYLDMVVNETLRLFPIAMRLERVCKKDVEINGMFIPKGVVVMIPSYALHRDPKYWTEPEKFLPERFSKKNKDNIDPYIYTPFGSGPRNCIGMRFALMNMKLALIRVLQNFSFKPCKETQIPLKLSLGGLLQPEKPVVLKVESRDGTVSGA

Structure (SMILES)	IC50 (CYP11A1) [nM]	Number of CN trapped metabolites ([1]; test compound 10 μM)	Number of GSH trapped metabolites ([1]; test compound 10 μM)	Number of SCA trapped metabolites ([1]; test compound 10 μM)	Number of CN trapped metabolites ([1]; test compound 1 μM)	Number of GSH trapped metabolites ([1]; test compound 1 μM)	Number of SCA trapped metabolites ([1]; test compound 1 μM)
CC(O)c1ccc2c(c1)CN(Cc1cc(=O)c(OCC3CCN(S(C)(=O)=O)CC3)co1)C2 (stereo not drawn) [Compound 93, 2-((5-(1-Hydroxyethyl)isoindolin-2-yl)methyl)-5-((1-(methylsulfonyl)piperidin-4-yl)methoxy)-4H-pyran-4-one]	201 to 2000	0	0	3 (trace)			
CC(C)(C)OC(=O)N1CC2(CC(COc3coc(CN4CCc5ccccc5C4)cc3=O)C2)C1 [Compound 30, tert-Butyl 6-(((6-((3,4-dihydroisoquinolin-2(1H)-yl)methyl)-4-oxo-4H-pyran-3-yl)oxy)methyl)-2-azaspiro[3.3]heptane-2-carboxylate]	201 to 2000				0	0	0
CS(=O)(=O)N1CCC(COc2coc(CN3Cc4ccc(-c5ncon5)cc4C3)cc2=O)CC1 [Compound 8, 2-((5-(1,2,4-Oxadiazol-3-yl)isoindolin-2-yl)methyl)-5-((1-(methylsulfonyl)-piperidin-4-yl)methoxy)-4H-pyran-4-one]	101 to 200	0	1 (trace)				
CS(=O)(=O)N1CCC(COc2coc(CN3Cc4ccc(-n5cccn5)cc4C3)cc2=O)CC1 [Compound 7, 2-((5-(1H-Pyrazol-1-yl)isoindolin-2-yl)methyl)-5-((1-(methylsulfonyl)piperidin-4-yl)methoxy)-4H-pyran-4-one]	101 to 200	0	0	1 (trace)			

Continued, in another order:

IC50 (CYP11A1) [nM]	Number of CN trapped metabolites ([1]; test compound 10 μM)	Number of GSH trapped metabolites ([1]; test compound 10 μM)	Number of SCA trapped metabolites ([1]; test compound 10 μM)	Structure (SMILES)	Number of CN trapped metabolites ([1]; test compound 1 μM)	Number of GSH trapped metabolites ([1]; test compound 1 μM)	Number of SCA trapped metabolites ([1]; test compound 1 μM)
101 to 200	0	0	2 (trace)	CS(=O)(=O)N1CCC(COc2coc(CN3Cc4ccc(-c5nnco5)cc4C3)cc2=O)CC1 [Compound 1, 2-((5-(1,3,4-Oxadiazol-2-yl)isoindolin-2-yl)methyl)-5-(((methylsulfonyl)piperidin-4-yl)methoxy)-4H-pyran-4-one]			
101 to 200	0	0	3 (trace)	CS(=O)(=O)N1CCC(COc2coc(CN3Cc4ccc(-c5cnco5)cc4C3)cc2=O)CC1 [Compound 2, 5-((1-(Methylsulfonyl)piperidin-4-yl)methoxy)-2-((5-(oxazol-5-yl)isoindolin-2-yl)methyl)-4H-pyran-4-one]			
< 100	0	0	1 (trace)	CC(=O)c1ccc2c(c1)CN(Cc1cc(=O)c(OCC3CCN(S(C)(=O)=O)CC3)co1)C2 [Compound 89, 2-((5-Acetylisoindolin-2-yl)methyl)-5-((1-(methylsulfonyl)piperidin-4-yl)-methoxy)-4H-pyran-4-one]			
